A word on the MIC: it is the least concentration at which growth counts as inhibited.

The subject of one assay is Poria placenta. Kind of assay: Agar hyphae growth test, minimum inhibitory concentration (MIC) and Kull synergism. The class given is cell-based. The following applies: malt extract/peptone nutrient agar, 26° C., radial hyphae growth suppressed completely; read-out: MIC against Poria placenta. The procedure:
(§1) The synergism was determined by the method described by Kull et al. (F. C. Kull, P. C. Eismann, H. D. Sylvestrowicz, R. L. Mayer, Applied Microbiology 1961, 9, 538-541). Here, the following relations apply:
[formula] X=1 means additivity X>1 means antagonism X<1 means synergism Qa=concentration of substance A which is the MIC Qb=concentration of substance B which is the MIC QA=concentration of substance A in the concentration of A/B which suppresses the microbial growth QB=concentration of substance B in the concentration of A/B which suppresses the microbial growth Results:
Mycelium pieces were punched out of a colony of the wood-destroying fungus Poria placenta and incubated at 26° C. on a malt extract/peptone-containing nutrient agar. The hyphae growth with and without added active compound and/or additive was compared. The minimum inhibitory concentration (MIC) stated is the concentration at which the radial hyphae growth is suppressed completely.

The next assay has as its system Gloeophyllum trabeum. Described as above. The class given is cell-based. The following applies: 168 h, malt extract/peptone nutrient agar, 26° C., radial hyphae growth suppressed completely, about 1 week, read-out: MIC against Gloeophyllum trabeum. As to the method: Mycelium pieces were punched out of a colony of the wood-destroying fungus Gloeophyllum trabeum and incubated at 26° C. on a malt extract/peptone-containing nutrient agar. The hyphae growth with and without added active compound and/or amidoalkylamine was compared. The minimum inhibitory concentration (MIC) stated is the concentration at which the radial hyphae growth is suppressed completely (incubation time: about 1 week depending on the fungal growth of the comparative sample without active compound).
as §1
[formula] X=1 means additivity X>1 means antagonism X<1 means synergism Qa=concentration of substance A which is the MIC Qb=concentration of substance B which is the MIC QA=concentration of substance A in the concentration of A/B which suppresses the microbial growth QB=concentration of substance B in the concentration of A/B which suppresses the microbial growth Results: […]

Regarding `CCCC1COC(Cn2cncn2)(c2ccc(Cl)cc2Cl)O1` (stereo not drawn) [propiconazole], the MIC with Poria placenta was determined as 0.5 µg/mL.

Regarding `CC(C)(C)C(O)(CCc1ccc(Cl)cc1)Cn1cncn1` (stereo not drawn) [tebuconazole], the minimum inhibitory concentration (MIC) in the assay with Gloeophyllum trabeum stood at 0.5 µg/mL.

With `CC(C)(C)C(=O)C(Oc1ccc(Cl)cc1)n1cncn1` (stereo not drawn) [triadimefon], the minimum inhibitory concentration (MIC) in the assay on Poria placenta is 3 µg/mL.

Values taken from patent US8002883B2, “Amidoalkylamine-comprising azole compositions for protecting industrial materials” (LANXESS Deutschland GmbH, priority 2009, dated 2011).
